From the supplement of paper PMC10307832 come the findings set out here.

What all share (experiment): relative viability (nuclei count vs DMSO), 5 days (fraction); higher = more cells survive
Compound in assay [1]: C1=CC2=C(C=C(C(=C2N=C1)O)N=NC3=CC4=C(C=C3)C=C(C=C4)S(=O)(=O)O)S(=O)(=O)O + Cc1nc(Nc2ncc(C(=O)Nc3c(C)cccc3Cl)s2)cc(N2CCN(CCO)CC2)n1 [Dasatinib] (partner 0.075 µM)
A digest of the protocol: (§1)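 After 5 days of treatment, lung cancer cells in 1536-well plates were fixed and stained in a single step (final 0.05% Triton X-100, 1% formaldehyde, 1 ug/ml Hoechst) and their nuclei counted on 4× images. Treatment had been applied by pin tool the day after seeding as one drug alone or as a fixed anchor-drug dose with five library-drug doses (not always all listed) in √10 steps. Relative viability is the nuclei count of treated wells divided by that of vehicle wells, and values are medians of duplicate plates.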

Compound in the assay “AT-7519 + Bortezomib”: O=C(NC1CCNCC1)c1n[nH]cc1NC(=O)c1c(Cl)cccc1Cl [AT-7519] + CC(C)C[C@H](NC(=O)[C@H](Cc1ccccc1)NC(=O)c1cnccn1)B(O)O [Bortezomib] (partner 0.002 µM)
A digest of the protocol: as §1

Compound in the assay “AT-7519 + Tozasertib”: O=C(NC1CCNCC1)c1n[nH]cc1NC(=O)c1c(Cl)cccc1Cl [AT-7519] + Cc1cc(Nc2cc(N3CCN(C)CC3)nc(Sc3ccc(NC(=O)C4CC4)cc3)n2)n[nH]1 [Tozasertib] (partner 0.1 µM)
A digest of the protocol: as §1

Compound in the assay “AT-7519 + Pemetrexed”: O=C(NC1CCNCC1)c1n[nH]cc1NC(=O)c1c(Cl)cccc1Cl [AT-7519] + Nc1nc2[nH]cc(CCc3ccc(C(=O)N[C@@H](CCC(=O)O)C(=O)O)cc3)c2c(=O)[nH]1 [Pemetrexed] (partner 0.2 µM)
In outline: as §1

Turning to EMC-BAC-2, the relative viability was found to be 0.324 in assay [1] (first compound 0.08 µM); 0.401 in assay [1] (first compound 0.253 µM); 0.336 in assay [1] (first compound 0.8 µM); 0.36 in assay [1] (first compound 2.53 µM); 0.367 in assay [1] (first compound 8 µM); 1.04 with AT-7519 + Bortezomib (first compound 0.01 µM). The relative viability amounted to 1.07 with AT-7519 + Bortezomib (first compound 0.03162 µM); 1.01 with AT-7519 + Bortezomib (first compound 0.3162 µM); 1.07 with AT-7519 + Bortezomib (first compound 1 µM); 0.339 in the assay with AT-7519 + Tozasertib (first compound 0.01 µM); 0.286 in the assay with AT-7519 + Tozasertib (first compound 0.03162 µM); 0.302 in the assay with AT-7519 + Tozasertib (first compound 0.3162 µM). For the same cell line, the relative viability with AT-7519 + Tozasertib (first compound 1 µM) was found to be 0.308; with AT-7519 + Pemetrexed (first compound 0.01 µM), 0.464; with AT-7519 + Pemetrexed (first compound 0.03162 µM) it was 0.442; with AT-7519 + Pemetrexed (first compound 0.3162 µM), 0.438; with AT-7519 + Pemetrexed (first compound 1 µM), 0.514.
As for EPLC-272H, the relative viability in assay [1] (first compound 0.08 µM) turned out to be 0.408; in assay [1] (first compound 0.253 µM), 0.313; in assay [1] (first compound 0.8 µM), 0.333; in assay [1] (first compound 2.53 µM) it was 0.366; in assay [1] (first compound 8 µM), 0.418; with AT-7519 + Bortezomib (first compound 0.01 µM) it was 1.03. Also, the relative viability in the assay with AT-7519 + Bortezomib (first compound 0.03162 µM) worked out at 0.973; in the assay with AT-7519 + Bortezomib (first compound 0.3162 µM), 0.723; in the assay with AT-7519 + Bortezomib (first compound 1 µM), 0.812; with AT-7519 + Tozasertib (first compound 0.01 µM) it was 0.376; in the assay with AT-7519 + Tozasertib (first compound 0.03162 µM), 0.26; with AT-7519 + Tozasertib (first compound 0.3162 µM), 0.39. For the same cell line, the relative viability in the assay with AT-7519 + Tozasertib (first compound 1 µM) stood at 0.243; with AT-7519 + Pemetrexed (first compound 0.01 µM) it was 0.268; with AT-7519 + Pemetrexed (first compound 0.03162 µM), 0.328; in the assay with AT-7519 + Pemetrexed (first compound 0.3162 µM) it was 0.303; in the assay with AT-7519 + Pemetrexed (first compound 1 µM), 0.0761.
Take H3255: the relative viability in assay [1] (first compound 0.08 µM) was found to be 0.346; in assay [1] (first compound 0.253 µM) it was 0.375; in assay [1] (first compound 0.8 µM) it was 0.297; in assay [1] (first compound 2.53 µM) it was 0.34; in assay [1] (first compound 8 µM) it was 0.477; in the assay with AT-7519 + Bortezomib (first compound 0.01 µM), 0.904. Moreover, the relative viability with AT-7519 + Bortezomib (first compound 0.03162 µM) amounted to 0.825; with AT-7519 + Bortezomib (first compound 0.3162 µM), 0.984; with AT-7519 + Bortezomib (first compound 1 µM), 0.766; in the assay with AT-7519 + Tozasertib (first compound 0.01 µM), 0.998; in the assay with AT-7519 + Tozasertib (first compound 0.03162 µM) it was 0.506; with AT-7519 + Tozasertib (first compound 0.3162 µM), 0.622. The relative viability with AT-7519 + Tozasertib (first compound 1 µM) came out at 0.582; with AT-7519 + Pemetrexed (first compound 0.01 µM) it was 0.559; with AT-7519 + Pemetrexed (first compound 0.03162 µM), 0.589; in the assay with AT-7519 + Pemetrexed (first compound 0.3162 µM), 0.499; with AT-7519 + Pemetrexed (first compound 1 µM), 0.503.
For the cell line HARA, the relative viability worked out at 0.284 in assay [1] (first compound 0.08 µM); 0.274 in assay [1] (first compound 0.253 µM); 0.274 in assay [1] (first compound 0.8 µM); 0.296 in assay [1] (first compound 2.53 µM); 0.327 in assay [1] (first compound 8 µM); 1.14 with AT-7519 + Bortezomib (first compound 0.01 µM). The relative viability turned out to be 1.16 in the assay with AT-7519 + Bortezomib (first compound 0.03162 µM); 1.1 with AT-7519 + Bortezomib (first compound 0.3162 µM); 1.06 with AT-7519 + Bortezomib (first compound 1 µM); 0.129 with AT-7519 + Tozasertib (first compound 0.01 µM); 0.0981 in the assay with AT-7519 + Tozasertib (first compound 0.03162 µM); 0.147 with AT-7519 + Tozasertib (first compound 0.3162 µM). The relative viability stood at 0.155 with AT-7519 + Tozasertib (first compound 1 µM); 0.234 with AT-7519 + Pemetrexed (first compound 0.01 µM); 0.298 with AT-7519 + Pemetrexed (first compound 0.03162 µM); 0.25 with AT-7519 + Pemetrexed (first compound 0.3162 µM); 0.296 with AT-7519 + Pemetrexed (first compound 1 µM).
Turning to HCC-15, the relative viability in assay [1] (first compound 0.08 µM) amounted to 0.684; in assay [1] (first compound 0.253 µM), 0.551; in assay [1] (first compound 0.8 µM), 0.609; in assay [1] (first compound 2.53 µM), 0.584; in assay [1] (first compound 8 µM), 0.624; with AT-7519 + Bortezomib (first compound 0.01 µM), 1.07. For the same cell line, the relative viability came out at 1.01 with AT-7519 + Bortezomib (first compound 0.03162 µM); 0.852 with AT-7519 + Bortezomib (first compound 0.3162 µM); 0.977 with AT-7519 + Bortezomib (first compound 1 µM); 0.378 with AT-7519 + Tozasertib (first compound 0.01 µM); 0.524 with AT-7519 + Tozasertib (first compound 0.03162 µM); 0.434 in the assay with AT-7519 + Tozasertib (first compound 0.3162 µM). For the same cell line, the relative viability with AT-7519 + Tozasertib (first compound 1 µM) was 0.199; in the assay with AT-7519 + Pemetrexed (first compound 0.01 µM), 0.217; with AT-7519 + Pemetrexed (first compound 0.03162 µM), 0.225; with AT-7519 + Pemetrexed (first compound 0.3162 µM) it was 0.205; with AT-7519 + Pemetrexed (first compound 1 µM) it was 0.204.
